{
  "source": "BindingDB's records for doi:10.1021/jm00107a015",
  "about": "(Institute of Cancer Research, 1991)",
  "note": "pIC50: −log10 of the molar value.",
  "data": [
    {"test": "Growth inhibition of thymidylate synthase(TS) in L1210 cells", "values": [
      {"compound": "CCN(Cc1ccc2ncnc(SC)c2c1)c1ccc(C(=O)NC(CCC(=O)O)C(=O)O)cc1", "note": "(stereo not drawn)", "pIC50": 3.93},
      {"compound": "C#CCN(Cc1ccc2nc[nH]c(=S)c2c1)c1ccc(C(=O)NC(CCC(=O)O)C(=O)O)cc1", "note": "(stereo not drawn)", "pIC50": 6.96},
      {"compound": "CCN(Cc1ccc2nc[nH]c(=S)c2c1)c1ccc(C(=O)NC(CCC(=O)O)C(=O)O)cc1", "note": "(stereo not drawn)", "pIC50": 6.59}
    ]}
  ]
}
